Laboratory results reported in US12351574B2, “Selective ligands for modulation of GIRK channels” (Northeastern University, priority 2018, dated 2025).

Key:
[1] = tested on: BLA neurons (GIRK currents); test: whole-cell patch-clamp in acute brain slices, basolateral amygdala (BLA) neurons; assay type: cell-based, rat; conditions: for current response of BLA neurons (in words): −50 mV
Procedure: Electrophysiological recordings from brain slices containing basolateral amygdala (BLA) neurons: Electrophysiology was performed using 150-200 g male Sprague-Dawley rats (Harlan/Envigo, Indianapolis, IN). Rats were group housed in plastic cages in standard housing conditions with ad libitum access to food and water with 12:12 light/dark cycle (lights on at 07:00 h). All experiments were conducted in accordance with the Guide for the Care and Use of Laboratory Animals (Institute for Laboratory Animal Research, The National Academies Press) and the guidelines of the IUPUI Institutional Animal Care and Use Committee. Rats were anesthetized with isoflurane and immediately decapitated. Brains were then rapidly removed, placed in ice-cold oxygenated artificial cerebrospinal fluid solution (ACSF) and coronal slices ([…]) were prepared containing the amygdala. Slices were incubated at 31° C. for 30 min and then returned to room temperature until recording. [ACSF solution in mM: 130 NaCl; 3.5 KCl; 1.1 KH2PO4; 1.3 MgCl2; 2.5 CaCl2; 30 NaHCO3; 10 glucose, 315 mOsm, 7.4 pH]. Cells were identified for recording at 40× magnification using Scientifica Slicescope microscope under DIC illumination (Scientifica, Uckfield, UK). ACSF was warmed to 30° C. and perfused at a rate of 2-3 ml/min during recordings. Compounds were added to ACSF at desired concentrations. Whole-cell patch-clamp recordings were obtained using standard techniques. Borosilicate glass electrodes (WPI, Sarasota, FL) (resistance 3-6 MΩ) were prepared and used for both recording and baclofen application. [Recording internal solution in mM: 140 K-gluconate; 2 KCl; 3 MgCl2; 10 HEPES; 5 Phosphocreatinine; 2 K-ATP; 0.2 Na-GTP, 290 mOsm, 7.4 pH]. In voltage-clamp mode, the cell was adjusted to −50 mV at the beginning of all experiments and 5 min stable baseline was established before treatment. Picospritzer II (Parker Hannifin, Hollis, NH) was utilized for local application of 100 μM GABA-B agonist baclofen in ACSF to activate GIRKs. Baseline and baclofen-induced currents were averaged from three responses per cell and analyzed using ClampFit software (Molecular Devices, San Jose, CA). […] Several control cells were subjected to baclofen at 2 min intervals for 30 min and consistent responses were observed, thus ruling out time-dependent effects.
The inventors employed whole-cell patch-clamp recording in acute brain slices to examine the effect of GAT1508. The inventors utilized brain slices that included the basolateral amygdala (BLA), a limbic structure that has been extensively described to coordinate the acquisition and expression of fear memories. […] Next, the inventors examined the response of BLA neurons to baclofen, a GABAB-receptor agonist that induces GIRK-mediated potassium currents. […]

GIRK1/2 = target: T1, GIRK1/2 (UniProt P48542+P48549); test: thallium flux assay, cells expressing GIRK1/2; assay type: cell-based; set-up: expressed in transfected cells
T1 sequence (P48549 1-501): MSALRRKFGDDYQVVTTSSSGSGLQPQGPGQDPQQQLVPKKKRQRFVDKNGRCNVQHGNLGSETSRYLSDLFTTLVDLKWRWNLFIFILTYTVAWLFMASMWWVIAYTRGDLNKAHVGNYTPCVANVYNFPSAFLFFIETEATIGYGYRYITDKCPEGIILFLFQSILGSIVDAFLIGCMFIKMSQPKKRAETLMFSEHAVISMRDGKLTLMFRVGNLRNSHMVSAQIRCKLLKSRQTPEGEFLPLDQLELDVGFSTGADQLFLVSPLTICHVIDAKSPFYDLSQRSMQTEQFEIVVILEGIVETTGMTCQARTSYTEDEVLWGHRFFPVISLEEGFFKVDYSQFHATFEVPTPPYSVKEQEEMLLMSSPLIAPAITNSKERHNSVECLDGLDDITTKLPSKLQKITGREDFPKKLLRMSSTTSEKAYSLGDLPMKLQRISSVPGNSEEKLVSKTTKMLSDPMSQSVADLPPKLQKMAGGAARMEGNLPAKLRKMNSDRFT
T1 sequence (P48542 1-425): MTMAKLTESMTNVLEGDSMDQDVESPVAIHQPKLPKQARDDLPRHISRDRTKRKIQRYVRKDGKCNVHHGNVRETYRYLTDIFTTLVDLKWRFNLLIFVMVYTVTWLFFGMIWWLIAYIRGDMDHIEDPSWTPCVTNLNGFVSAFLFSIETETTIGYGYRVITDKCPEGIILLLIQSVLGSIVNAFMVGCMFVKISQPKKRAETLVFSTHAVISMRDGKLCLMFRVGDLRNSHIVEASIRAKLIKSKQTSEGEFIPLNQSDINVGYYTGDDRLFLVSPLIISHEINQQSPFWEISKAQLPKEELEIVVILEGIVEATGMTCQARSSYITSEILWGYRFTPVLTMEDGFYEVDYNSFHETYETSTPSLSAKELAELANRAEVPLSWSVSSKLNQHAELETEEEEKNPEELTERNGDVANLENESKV
Source text: Previous studies have utilized the thallium flux Assay to test the effects of ML297 and related compounds in cells coexpressing GIRK1/2 and GIRK1/4. In order to fully investigate the selective activation of GAT compounds, the inventors also utilized this assay. […] To determine the differences between the thallium flux and TEVC assays, the inventors computationally tested whether the binding of selective compounds could affect the selectivity of the pore area. The Cα RMSF of the region between the M1 and M2 helices of the channel were calculated during the MD simulation with or without ML297 and the selective GAT compounds in the GIRK2/2^FD and GIRK4/4^FD systems (FIGS. 60A-60B). […] To further test this idea, the inventors compared the 10 μM GAT1508-induced thallium and potassium currents in oocytes expressing GIRK1/2 and GIRK1/4 by TEVC recording (FIG. 61B). […] In an effort to enhance the current, the TEVC recording was performed at a holding potential of −100 mV.

With `Cc1cc(NC(=O)Nc2ccc(Br)s2)n(-c2ccccc2)n1` [GAT1508, 1-(5-bromothiophen-2-yl)-3-(3-methyl-1-phenyl-1H-pyrazol-5-yl)urea] the “current response of BLA neurons (in words)” value ([1]; 10 μM perfusion) was “did not produce responses”, the “current response of BLA neurons (in words)” value ([1]; 30 μM perfusion) was “produced significant outward current” and the “effect on baclofen-induced current in BLA neurons (in words)” value ([1]; 10 min perfusion of 10 μM, 100 μM baclofen puff) was “significantly potentiated baclofen-induced current”.
Molecule `Cc1cc(NC(=O)Nc2ccc(F)c(F)c2)n(-c2ccccc2)n1` [ML297, reference compound] has an EC50 (GIRK1/2) of about 0.689 µM.
